Measured values as given in ChEMBL document CHEMBL1139148, “N-Phenyl-N'-(2-chloroethyl)urea analogues of combretastatin A-4: Is the N-phenyl-N'-(2-chloroethyl)urea pharmacophore mimicking the trimethoxy phenyl moiety?” (2007).

What was measured:
Type in all cases: functional
MCF7 = experiment: Growth inhibition of human MCF7 cells
M21 [1] = experiment: Cell cycle arrest in human M21 cells assessed as accumulation at G1 phase at 80 uM after 24 hrs
M21 [2] = experiment: Cell cycle arrest in human M21 cells assessed as accumulation at G2/M phase at 80 uM after 24 hrs
M21 [3] = experiment: Cell cycle arrest in human M21 cells assessed as accumulation at G2/M phase at 24 uM after 24 hrs
MDA-MB-231 = experiment: Growth inhibition of human MDA-MB-231 cells
M21 [4] = experiment: Cell cycle arrest in human M21 cells assessed as accumulation at G1 phase at 24 uM after 24 hrs
HT-29 = experiment: Growth inhibition of human HT29 cells
M21 [5] = experiment: Cell cycle arrest in human M21 cells assessed as accumulation at G2/M phase at 200 uM after 24 hrs
M21 [6] = experiment: Induction of apoptosis in human M21 cells at 80 uM after 24 hrs
M21 [7] = experiment: Growth inhibition of human M21 cells
M21 [8] = experiment: Cell cycle arrest in human M21 cells assessed as accumulation at S phase at 200 uM after 24 hrs
M21 [9] = experiment: Induction of apoptosis in human M21 cells at 200 uM after 24 hrs
M21 [10] = experiment: Induction of apoptosis in human M21 cells at 24 uM after 24 hrs
M21 [11] = experiment: Cell cycle arrest in human M21 cells assessed as accumulation at G1 phase at 200 uM after 24 hrs
M21 [12] = experiment: Cell cycle arrest in human M21 cells assessed as accumulation at S phase at 80 uM after 24 hrs
M21 [13] = experiment: Cell cycle arrest in human M21 cells assessed as accumulation at S phase at 24 uM after 24 hrs
M21 [14] = experiment: Cell cycle arrest in human M21 cells assessed as accumulation at G1 phase at 0.050 uM after 24 hrs
M21 [15] = experiment: Cell cycle arrest in human M21 cells assessed as accumulation at S phase at 0.015 uM after 24 hrs
M21 [16] = experiment: Induction of apoptosis in human M21 cells at 0.050 uM after 24 hrs
M21 [17] = experiment: Cell cycle arrest in human M21 cells assessed as accumulation at G2/M phase at 0.050 uM after 24 hrs
M21 [18] = experiment: Cell cycle arrest in human M21 cells assessed as accumulation at G2/M phase at 0.015 uM after 24 hrs
M21 [19] = experiment: Cell cycle arrest in human M21 cells assessed as accumulation at G1 phase at 0.125 uM after 24 hrs
M21 [20] = experiment: Induction of apoptosis in human M21 cells at 0.125 uM after 24 hrs
M21 [21] = experiment: Cell cycle arrest in human M21 cells assessed as accumulation at S phase at 0.125 uM after 24 hrs
M21 [22] = experiment: Cell cycle arrest in human M21 cells assessed as accumulation at G1 phase at 0.015 uM after 24 hrs
M21 [23] = experiment: Cell cycle arrest in human M21 cells assessed as accumulation at G2/M phase at 0.125 uM after 24 hrs
M21 [24] = experiment: Cell cycle arrest in human M21 cells assessed as accumulation at S phase at 0.050 uM after 24 hrs
M21 [25] = experiment: Induction of apoptosis in human M21 cells at 0.015 uM after 24 hrs
M21 [26] = experiment: Cell cycle arrest in human M21 cells assessed as accumulation at G1 phase at 53 uM after 24 hrs
M21 [27] = experiment: Cell cycle arrest in human M21 cells assessed as accumulation at S phase at 6 uM after 24 hrs
M21 [28] = experiment: Cell cycle arrest in human M21 cells assessed as accumulation at G1 phase at 6 uM after 24 hrs
M21 [29] = experiment: Cell cycle arrest in human M21 cells assessed as accumulation at G1 phase at 21 uM after 24 hrs
M21 [30] = experiment: Cell cycle arrest in human M21 cells assessed as accumulation at G2/M phase at 53 uM after 24 hrs
M21 [31] = experiment: Induction of apoptosis in human M21 cells at 6 uM after 24 hrs
M21 [32] = experiment: Cell cycle arrest in human M21 cells assessed as accumulation at G2/M phase at 21 uM after 24 hrs
M21 [33] = experiment: Cell cycle arrest in human M21 cells assessed as accumulation at G2/M phase at 6 uM after 24 hrs
M21 [34] = experiment: Cell cycle arrest in human M21 cells assessed as accumulation at S phase at 53 uM after 24 hrs
M21 [35] = experiment: Induction of apoptosis in human M21 cells at 21 uM after 24 hrs
M21 [36] = experiment: Cell cycle arrest in human M21 cells assessed as accumulation at S phase at 21 uM after 24 hrs
M21 [37] = experiment: Induction of apoptosis in human M21 cells at 53 uM after 24 hrs

| SMILES | GI50 (MCF7) [µM] | GI50 (MDA-MB-231) [µM] | GI50 (HT-29) [µM] | Activity (M21 [1]) [%] | Activity (M21 [2]) [%] | Activity (M21 [3]) [%] | Activity (M21 [4]) [%] | Activity (M21 [5]) [%] | Activity (M21 [6]) [%] | GI50 (M21 [7]) [µM] | Activity (M21 [8]) [%] | Activity (M21 [9]) [%] | Activity (M21 [10]) [%] | Activity (M21 [11]) [%] | Activity (M21 [12]) [%] | Activity (M21 [13]) [%] | also measured |
| --- | --- | --- | --- | --- | --- | --- | --- | --- | --- | --- | --- | --- | --- | --- | --- | --- | --- |
| COc1ccc(CCc2cccc(NC(=O)NCCCl)c2)cc1O | 11.6 | 4.1 | 9.6 | 15.2 | 34.9 | 27.5 | 23.8 | 42.6 | 18.7 | 4.7 | 15.7 | 6.9 | 12.5 | 13.5 | 16.4 | 20.7 | – |
| COc1ccc(/C=C/c2ccc(NC(=O)NCCCl)cc2)cc1O | 14 | 17.4 | 1.18 | 38.8 | 21 | 19.5 | 38.1 | 12.4 | 5.5 | 8.38 | 21.9 | 11.9 | 9.9 | 37.4 | 15.6 | 12.9 | – |
| COc1ccc(CCc2ccc(NC(=O)NCCCl)cc2)cc1O | 15.9 | 11 | 15.3 | 15.5 | 45.1 | 30.2 | 37.8 | 47.9 | 2.3 | 16.3 | 16.3 | 2.6 | 2.8 | 7.2 | 13.4 | 9.9 | – |
| COc1ccc(/C=C\c2cccc(NC(=O)NCCCl)c2)cc1O | 4.5 | 4.9 | 9.2 | 18.4 | 35.5 | 12.5 | 22.1 | 41.3 | 15 | 4 | 10.5 | 21.7 | 44.8 | 14.7 | 16.4 | 12.3 | – |
| COc1ccc(/C=C/c2cccc(NC(=O)NCCCl)c2)cc1O | 28.2 | 16.5 | 68.2 | 38.1 | 21.3 | 22.5 | 37.2 | 19.6 | 5.3 | 22.7 | 19 | 4.5 | 8.3 | 40.3 | 18.7 | 16.6 | – |

Compounds with a lower GI50 (MCF7), results first:

| GI50 (MCF7) [µM] | GI50 (MDA-MB-231) [µM] | GI50 (HT-29) [µM] | SMILES | Activity (M21 [1]) [%] | Activity (M21 [2]) [%] | Activity (M21 [3]) [%] | Activity (M21 [4]) [%] | Activity (M21 [5]) [%] | Activity (M21 [6]) [%] | GI50 (M21 [7]) [µM] | Activity (M21 [8]) [%] | Activity (M21 [9]) [%] | Activity (M21 [10]) [%] | Activity (M21 [11]) [%] | Activity (M21 [12]) [%] | Activity (M21 [13]) [%] | also measured |
| --- | --- | --- | --- | --- | --- | --- | --- | --- | --- | --- | --- | --- | --- | --- | --- | --- | --- |
| 1.65 | 0.86 | 2.4 | COc1ccc(/C=C\c2ccc(NC(=O)NCCCl)cc2)cc1O | – | – | – | – | – | – | 0.97 | – | – | – | – | – | – | Activity (M21 [26]): 8.1%; Activity (M21 [27]): 15.8%; Activity (M21 [28]): 11.4%; Activity (M21 [29]): 6.8%; Activity (M21 [30]): 48%; Activity (M21 [31]): 10.7%; Activity (M21 [32]): 47.2%; Activity (M21 [33]): 43.3%; Activity (M21 [34]): 12.5%; Activity (M21 [35]): 17.6%; Activity (M21 [36]): 9.7%; Activity (M21 [37]): 9.7% |
| 0.48 | 0.23 | 0.16 | O=C(NCCCl)Nc1cccc(CCCCCO)c1 | – | – | – | – | – | – | 0.27 | – | – | – | – | – | – | – |
| 0.003 | 0.002 | 0.089 | COc1ccc(/C=C\c2cc(OC)c(OC)c(OC)c2)cc1O [COMBRETASTATIN A4] | – | – | – | – | – | – | 0.002 | – | – | – | – | – | – | Activity (M21 [14]): 10.1%; Activity (M21 [15]): 15%; Activity (M21 [16]): 15.8%; Activity (M21 [17]): 40.6%; Activity (M21 [18]): 46.4%; Activity (M21 [19]): 8.2%; Activity (M21 [20]): 11.6%; Activity (M21 [21]): 14.7%; Activity (M21 [22]): 9.4%; Activity (M21 [23]): 45.4%; Activity (M21 [24]): 14.6%; Activity (M21 [25]): 10.7% |
